Some test systems named below: NCI-H23 lung; A549 NSCLC; A498 renal; RPMI-8226 leukemia; TK-10 renal; NCI-H226 lung; SF-268 CNS; CAKI-1 renal; UACC-257 melanoma; LOX IMVI melanoma.
What all share (assay): inhibition of tumour cell growth, NCI panel, 48 h

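48-hour exposure; five concentrations; linearly interpolated endpoints. The concentration for 50% growth inhibition is given as GI50. TGI marks complete inhibition of growth.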 Where only a bound is given, the exact number is not on record here.

With `COc1ccccc1/C=C/c1c(N)ncnc1Nc1cccc(Cl)c1`, the TGI in the assay on NCI-H23 lung was 47 µM; with A549 NSCLC, 41.6 µM; in the assay on A498 renal, 30.9 µM; in the assay on RPMI-8226 leukemia it was 31.2 µM; with TK-10 renal, 44.1 µM; with NCI-H226 lung, 49 µM. Besides, the TGI in the assay on SF-268 CNS was determined as 38.8 µM; in the assay on CAKI-1 renal it was 58.9 µM; in the assay on UACC-257 melanoma it was 35 µM.

With `Cc1ccc2ccc3ccc(C)nc3c2n1`, the TGI in the assay with NCI-H23 lung, in the assay with A549 NSCLC, in the assay with A498 renal, with RPMI-8226 leukemia, with TK-10 renal and in the assay with NCI-H226 lung was > 100 µM each time. Moreover, the TGI in the assay with SF-268 CNS, with CAKI-1 renal, in the assay on UACC-257 melanoma and in the assay with LOX IMVI melanoma was > 100 µM throughout.

With `C=Cc1cc(OC)c2c(c1)c(=O)oc1c2cc(OC)c2c(O)ccc(C3OC(C)C(O)C(C)(O)C3O)c21` (centres undefined), the GI50 with NCI-H23 lung is 0.000113 µM; in the assay on A549 NSCLC it was 0.000716 µM; in the assay with A498 renal, 0.00121 µM; with RPMI-8226 leukemia it was 0.000432 µM; in the assay on SF-268 CNS, 0.000148 µM; in the assay with CAKI-1 renal, 0.00224 µM. Further, in the assay on LOX IMVI melanoma, the GI50 is 0.000281 µM. Also, the TGI with A549 NSCLC stood at 0.376 µM; in the assay with TK-10 renal, 0.00855 µM; with CAKI-1 renal, 0.0916 µM.

For the molecule `O=C1C(=c2cc3c(c4ccccc24)=NC24CCCCC2C(c2ccccc2)C=C(c2ccccc2)N34)C(=O)c2ccccc21` (centres undefined), the TGI was > 100 µM in the assay on A549 NSCLC; > 100 µM in the assay with A498 renal; 53.8 µM in the assay on RPMI-8226 leukemia; > 100 µM in the assay with TK-10 renal; > 100 µM with NCI-H226 lung; > 100 µM with SF-268 CNS. In addition, the TGI in the assay on CAKI-1 renal, with UACC-257 melanoma and with LOX IMVI melanoma was > 100 µM each time.

On to `CN=C(N)/N=C(\N)Nc1cc2ccccc2c2ccccc12`, for which the TGI in the assay with NCI-H23 lung stood at 33.2 µM; with A549 NSCLC it was 30.8 µM; in the assay on A498 renal, 23.3 µM; with RPMI-8226 leukemia, 43.3 µM; in the assay with TK-10 renal, 26 µM; with NCI-H226 lung, 37.4 µM. Besides, the TGI in the assay with SF-268 CNS was determined as 27.5 µM; in the assay on CAKI-1 renal, 31.2 µM; in the assay on UACC-257 melanoma, 30.9 µM; with LOX IMVI melanoma it was 29.7 µM.

For the molecule `CSc1ccc(-c2cc(-c3nc4ccccc4[nH]3)nc(N)c2C#N)cc1`, the TGI in the assay on NCI-H23 lung is 99.5 µM; in the assay with A549 NSCLC it was > 100 µM; in the assay on A498 renal, 50 µM; in the assay with RPMI-8226 leukemia it was 77.2 µM; in the assay on TK-10 renal, 99.7 µM; with NCI-H226 lung it was 79.5 µM. Also, the TGI was 61.6 µM in the assay with SF-268 CNS, 54.4 µM in the assay with CAKI-1 renal, 39.4 µM in the assay on UACC-257 melanoma and 44 µM with LOX IMVI melanoma.

On to `C[C@H](N[C@H]1CCC[C@]1(O)C#Cc1ccc2c(c1)OCO2)c1ccccc1`, for which the TGI in the assay with NCI-H23 lung is > 25 µM; in the assay with A549 NSCLC, > 25 µM; with A498 renal, > 25 µM; in the assay with RPMI-8226 leukemia, 16.9 µM; with TK-10 renal, > 25 µM; with NCI-H226 lung it was > 25 µM. The TGI in the assay with SF-268 CNS, with CAKI-1 renal, in the assay with UACC-257 melanoma and in the assay with LOX IMVI melanoma was > 25 µM in each case.

For the molecule `CCCC1=C(C(=O)OCC)C(c2ccccc2OC)C(C#N)=C(N)O1` (centres undefined), the GI50 in the assay on NCI-H23 lung is > 100 µM; with A549 NSCLC, > 100 µM; with A498 renal, 62.2 µM; in the assay on RPMI-8226 leukemia, 13.3 µM; in the assay with TK-10 renal it was 46.1 µM; in the assay with NCI-H226 lung, 22.5 µM. Further, the GI50 in the assay on SF-268 CNS was 37.8 µM; with CAKI-1 renal it was 57.5 µM; with UACC-257 melanoma, 65.5 µM; in the assay on LOX IMVI melanoma it was 29.9 µM. For the same molecule, the TGI is > 100 µM in the assay on NCI-H23 lung; > 100 µM in the assay on A549 NSCLC; > 100 µM in the assay with A498 renal; 32.2 µM in the assay with RPMI-8226 leukemia; > 100 µM in the assay on TK-10 renal; 58.2 µM in the assay on NCI-H226 lung. The TGI with SF-268 CNS, in the assay with CAKI-1 renal, in the assay on UACC-257 melanoma and in the assay on LOX IMVI melanoma was > 100 µM throughout.

For the molecule `C[C@@H](CO)C1=CC(C#C[Si](C)(C)C)N(C(=O)Oc2ccccc2)c2ccccc21` (some centres undefined), the TGI with NCI-H23 lung came out at 23.1 µM; in the assay with A549 NSCLC, 61.4 µM; in the assay on RPMI-8226 leukemia it was 90.4 µM; in the assay on TK-10 renal, 79.5 µM; with NCI-H226 lung, 44 µM; in the assay with SF-268 CNS, 39 µM. In addition, the TGI worked out at 56.8 µM in the assay on CAKI-1 renal, 38.3 µM with UACC-257 melanoma and 32.4 µM in the assay on LOX IMVI melanoma.

Regarding `O=C1/C(=C/c2ccc(Cl)cc2)N=C(c2ccccc2)N1c1nc2c(Cl)cc(Cl)cc2s1`, the TGI with A549 NSCLC was 68.7 µM; with A498 renal, 50.2 µM; with RPMI-8226 leukemia it was > 100 µM; in the assay with TK-10 renal it was > 100 µM; in the assay with SF-268 CNS, > 100 µM; in the assay on CAKI-1 renal it was > 100 µM. The TGI is > 100 µM in the assay on UACC-257 melanoma and 53.4 µM in the assay on LOX IMVI melanoma.

As for `O=C(NCCNc1nccc(-c2c(-c3cccc(O)c3)nc3sccn23)n1)Nc1cccc(C(F)(F)F)c1`, the GI50 with NCI-H23 lung was 4.62 µM; in the assay on A549 NSCLC it was 2.98 µM; in the assay on A498 renal it was 7.33 µM; in the assay on RPMI-8226 leukemia it was 2.52 µM; with TK-10 renal, 3.66 µM; in the assay on NCI-H226 lung it was 9.99 µM. The GI50 in the assay on SF-268 CNS was 3.45 µM; with CAKI-1 renal it was 14.2 µM; in the assay with UACC-257 melanoma, 2.51 µM; with LOX IMVI melanoma, 4.05 µM. The TGI amounted to 32.5 µM with NCI-H23 lung; 8.44 µM in the assay on A549 NSCLC; 32.6 µM in the assay with A498 renal; 5.46 µM with RPMI-8226 leukemia; 11.1 µM in the assay on TK-10 renal; 28.5 µM with NCI-H226 lung. In addition, the TGI in the assay with SF-268 CNS stood at 14.6 µM; in the assay on CAKI-1 renal, 50.5 µM; in the assay on UACC-257 melanoma, 6.94 µM; in the assay with LOX IMVI melanoma, 26.2 µM.

`COc1cc2c(cc1OC)C1Cc3cc(OC)c(OC)cc3C(C2)O1`: the TGI in the assay on NCI-H23 lung, in the assay with A549 NSCLC, in the assay with RPMI-8226 leukemia, with TK-10 renal, in the assay on NCI-H226 lung and with SF-268 CNS was > 100 µM in each case. In addition, the TGI with CAKI-1 renal, with UACC-257 melanoma and with LOX IMVI melanoma was > 100 µM each time.

These data come from PubChem BioAssay (NCI).
